Consider 16 molecules from PubChem BioAssay (NCI).

The structures appear in SMILES notation. Several values for one entry are separate records, joined by “and”; a condition that tells them apart may be missing. Equal values may be shown once.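 The compound was tested at five concentrations on cells cultured in 96-well plates, with a 48-hour exposure period. GI50 = concentration required for 50% inhibition of growth. TGI denotes the concentration required for complete inhibition of growth.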 Some results are limits rather than exact numbers.

Assay in all cases: DTP human tumour cell line panel, 48 h
The test system of experiment [1] is EKVX NSCLC.
Experiment [2] relates to A498 renal.
For experiment [3], the system named is HOP-92 NSCLC.
Experiment [4] has as its system M19-MEL melanoma.
The subject of experiment [5] is 786-0 renal.
The test system of experiment [6] is HOP-18 NSCLC.
Experiment [7] has as its system KM12 colon.
Experiment [8] concerns NCI-H522 lung.
Experiment [9] deals with MDA-MB-231 breast.
For experiment [10], the system named is PC-3 prostate.

The GI50 is the concentration at which growth is held to half of that of the control. As a reminder, the TGI is the concentration giving total growth inhibition.

Turning to `Cc1ccncc1.[O]=[Ge].[O]=[Ge].[O]=[Ge].[O]=[Ge].[O]=[Ge].[O]=[Ge][OH].[O]=[Ge][OH]`, the GI50 in experiment [1], in [2], in experiment [3], in experiment [4], in experiment [5] and in experiment [6] was greater than 100 µM each time. Further, in experiment [7], the GI50 is greater than 100 µM. Moreover, the TGI in [1], in experiment [2], in experiment [3], in [4], in [5] and in experiment [6] was greater than 100 µM each time. In [7], this molecule came in with a TGI greater than 100 µM.
For the molecule `C[N+](C)(C)CC(=O)N/N=C(/Cc1nc2c3c(ccc2[nH]c1=O)C(=O)c1ccccc1C3=O)C(=O)Nc1ccc(Cl)c(Cl)c1`, the TGI is greater than 100 µM in experiment [1]; greater than 100 µM in experiment [2]; 99.8 µM in [3]; greater than 100 µM in [4]; greater than 100 µM in [8]; greater than 100 µM in experiment [5]. The same molecule yielded a TGI in experiment [7] greater than 100 µM.
Consider `CCCc1[nH]nc(CCC(=O)N(Cc2ccccc2)Cc2ccccc2)c1CC`, for which the TGI in experiment [1], in experiment [2], in experiment [4], in experiment [8], in experiment [5] and in [6] was greater than 100 µM throughout. The same molecule showed a TGI in experiment [7] greater than 100 µM.
As for `COc1cc(C2c3cc4c(cc3[C@@H](Nc3ccc(C#N)cc3)C3COC(=O)[C@H]23)OCO4)cc(OC)c1O` (stereo partly drawn), the GI50 in experiment [1] was 2.21 µM and 3.71 µM; in experiment [3], 0.685 µM; in experiment [9] it was 3.34 µM; in [8], 1.44 µM and 1.55 µM; in experiment [5], 0.112 µM; in experiment [10], 2.81 µM. The GI50 in [7] is 1.13 µM and 1.61 µM. For the same molecule, the TGI in [1] was 50 µM and 12.8 µM and > 100 µM; in [2] it was 11.4 µM; in experiment [3], 6.77 µM and 5.99 µM; in experiment [9] it was 25.6 µM and > 100 µM; in experiment [8], 7.51 µM and 4.48 µM and 7.4 µM; in experiment [5], 1.92 µM and 1.19 µM. Besides, the TGI in [10] is 50 µM and > 100 µM; in experiment [6], 39.3 µM.
For the molecule `N#CC(C(=O)/C(=N/NC(=O)c1ccccc1O)C(C#N)c1ccc(Cl)cc1)c1ccc(Cl)cc1` (stereo not drawn), the concentration for total growth inhibition (TGI) in experiment [1] was determined as 36.9 µM; in [2], 25.5 µM; in experiment [4], 55.3 µM; in experiment [5] it was 29.9 µM; in experiment [6] it was 23.6 µM; in experiment [7], 30 µM.
As for `O=c1c2c([nH]c3cc4c(cc13)OCO4)-c1ccccc1CC2`, the TGI in experiment [1], in [2], in experiment [4] and in experiment [5] was greater than 100 µM each time.
As for `Cc1ccc(-c2c(N)[n+]([O-])c3ccccc3[n+]2[O-])cc1`, the TGI in [1] is 50.2 µM; in experiment [3] it was greater than 100 µM; in experiment [4] it was 24.8 µM; in experiment [8] it was 3.21 µM; in [5], 28.6 µM; in [6], 29.1 µM. The TGI in [7] came out at 26.7 µM.
In the case of `CC1=NCCc2c1[nH]c1cc(O)ccc21`, the TGI in experiment [1], in experiment [2], in experiment [3], in experiment [4], in experiment [5] and in experiment [6] was greater than 100 µM in each case. For the same molecule, the TGI in experiment [7] is greater than 100 µM.
In the case of `COc1cc2c(cc1OC)C(N(C)C)C(c1ccccc1)=C2Cl` (stereo not drawn), the TGI in experiment [2] is 59.7 µM; in experiment [3] it was 36.7 µM; in [4] it was 39.1 µM; in [8], 21.7 µM; in experiment [5] it was 73.9 µM; in experiment [6], greater than 100 µM. In experiment [7], this molecule displayed a TGI of 57.9 µM.
`COC(=O)c1csnn1`: the TGI in [1], in experiment [4], in [8], in [5] and in experiment [7] was greater than 100 µM throughout.
For `C=CCC1([C@H](C)[C@@H](OC(C)=O)c2cc(OC)c(OC)c(OC)c2)C[C@@H](OC)CCC1=O` (stereo partly drawn), the TGI in experiment [1] is 76.2 µM; in experiment [3], greater than 100 µM; in [4], 91.3 µM; in experiment [8] it was 25.4 µM; in experiment [5] it was 26.7 µM; in experiment [7], 37 µM.
For `O=Cc1cn(C(=O)c2ccccc2)c2ccccc12`, the TGI in experiment [1], in [2], in [4], in experiment [5] and in [7] was greater than 100 µM in each case.
`CC1CCCCc2nc3c(c(=O)n21)CCCC3` (stereo not drawn): the TGI in experiment [3], in experiment [4], in experiment [8], in experiment [5] and in experiment [7] was greater than 100 µM throughout.
On to `Cc1cccc(NC(=O)CC(=O)N2N=C(N(CCC#N)c3ccc(Cl)cc3)CC2c2ccccc2)c1` (stereo not drawn), for which the TGI in experiment [3], in experiment [4], in [8], in experiment [5], in experiment [6] and in experiment [7] was greater than 100 µM in each case.
Turning to `CC(C)(C)C#CC1=C(Br)C(=O)OC1`, the GI50 in experiment [1] is 1.69 µM; in experiment [2], 4.04 µM; in experiment [3], 2.82 µM; in experiment [9], 2.48 µM; in experiment [8] it was 7.7 µM; in [5], 2.27 µM. Besides, the GI50 was 2.39 µM in experiment [10] and 1.32 µM in experiment [7]. Besides, the TGI in experiment [1] turned out to be 4.71 µM; in experiment [2], 15.1 µM; in [3], 9.2 µM; in experiment [9] it was 11 µM; in experiment [8], 22.5 µM; in [5], 5.96 µM. In addition, the TGI amounted to 11.2 µM in experiment [10] and 3.6 µM in experiment [7].
With `COC(=O)[C@]12CC[C@@H](C)[C@H](C)[C@@H]1C1=CC[C@@H]3[C@@]4(C)C[C@@H](OC(C)=O)[C@H](O)[C@@](C)(COC(C)=O)[C@@H]4[C@H](O)C[C@@]3(C)[C@]1(C)CC2`, the GI50 is 2.22 µM in experiment [1]; 2.04 µM in experiment [2]; 1.53 µM in experiment [3]; 1.87 µM in experiment [9]; 1.94 µM in experiment [8]; 1.89 µM in experiment [5]. Besides, the GI50 in [10] was 1.86 µM; in experiment [7] it was 2.65 µM. The TGI in experiment [1] worked out at 6.69 µM; in [2], 7.4 µM; in experiment [3], 5.68 µM; in [9], 4.81 µM; in experiment [8], 4.33 µM; in experiment [5] it was 4.84 µM. The values for the TGI in experiment [10] and in experiment [7] were 7.05 µM and 7.9 µM, respectively.
